Reference: PubChem BioAssay (NCI)
“And” between values parts separate entries of the source, which are not always exact repeats. Equal entries are not always repeated.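 Five concentrations, 48 hours, 96-well plates. Abbreviation: GI50, concentration required for 50% inhibition of growth. Definition used: TGI = concentration required for complete inhibition of growth.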

Legend:
Assay in all cases: inhibition of tumour cell growth, NCI panel, 48 h
[1] = test system: TK-10 renal
[2] = test system: SF-295 CNS
[3] = test system: SK-OV-3 ovarian
[4] = test system: EKVX NSCLC
[5] = test system: NCI-H23 lung
[6] = test system: NCI-H226 lung
[7] = test system: OVCAR-5 ovarian
[8] = test system: SR leukemia
[9] = test system: HCC-2998 colon
[10] = test system: NCI/ADR-RES ovarian

Row | SMILES | TGI [1] | TGI [2] | TGI [3] | TGI [4] | TGI [5] | TGI [6] | TGI [7] | TGI [8] | TGI [9] | TGI [10] [µM] | GI50 [1] [µM] | GI50 [2] [µM] | GI50 [3] [µM] | GI50 [4] [µM] | GI50 [7] [µM] | GI50 [5] | GI50 [9] [µM] | GI50 [10] [µM] | GI50 [6] [µM] | GI50 [8]
1 | O=C(Nc1cc(Cl)ccc1Cl)c1cc2cccc(Br)c2oc1=O | > 100 µM | > 100 µM | > 100 µM | > 100 µM | > 100 µM | > 100 µM | – | – | – | – | – | – | – | – | – | – | – | – | – | –
2 | O=C1C=CC(=O)C2C1Cc1ccccc1C2c1ccccc1 (stereo not given) | > 100 µM | > 100 µM | > 100 µM | 72.9 µM | > 100 µM | > 100 µM | > 100 µM | 59.1 µM | 60 µM | – | – | – | – | – | – | – | – | – | – | –
3 | NCCOCn1cc(Cc2cccc(OCc3ccccc3)c2)c(=O)[nH]c1=O | > 100 µM | > 100 µM | > 100 µM | > 100 µM | > 100 µM | > 100 µM | – | – | > 100 µM | – | – | – | – | – | – | – | – | – | – | –
4 | COc1cc(O)c(C(=O)CC(C)=O)c(OC)c1 | > 100 µM | > 100 µM | > 100 µM | > 100 µM | > 100 µM | > 100 µM | > 100 µM | – | > 100 µM | – | – | – | – | – | – | – | – | – | – | –
5 | O=S(=O)(c1ccccc1)c1nccs1 | > 100 µM | > 100 µM | > 100 µM | > 100 µM | > 100 µM | > 100 µM | > 100 µM | > 100 µM | > 100 µM | – | – | – | – | – | – | – | – | – | – | –
6 | O=C(O)CNc1ccc(Cl)c(Cl)c1 | 58.7 µM | 75.9 µM | > 100 µM | 64.8 µM | > 100 µM | > 100 µM | > 100 µM | – | – | 84.6 | – | – | – | – | – | – | – | – | – | –
7 | Cc1cc(C)nc(NS(=O)(=O)c2ccc(Nc3c4ccccc4nc4c(C(=O)Nc5ccc(S(=O)(=O)Nc6cc(C)on6)cc5)ccc(Cl)c34)cc2)n1 | > 100 µM | 44.8 µM | > 100 µM | 62.5 µM | 59.7 µM | – | 44.6 µM | 53.8 µM | 32.6 µM | – | – | – | – | – | – | – | – | – | – | –
8 | CCOP(=O)(OCC)/C(C#N)=C\c1ccsc1 | > 100 µM | > 100 µM | > 100 µM | > 100 µM | > 100 µM | > 100 µM | > 100 µM | – | > 100 µM | – | – | – | – | – | – | – | – | – | – | –
9 | O=C(Nc1ccc2ncnc(Nc3ccc(Oc4cccc(F)c4)c(Cl)c3)c2c1)c1ccc(CN2CCOCC2)cc1 | 13.5 µM | 10.3 µM | > 100 µM | 38.2 µM | 5.89 µM | 33.7 µM | 23.4 µM | – | 18.6 µM | 7.16 | 3.08 | 2.66 | 1.66 | 1.86 | 4.5 | 2.09 µM | 3.14 | 2.33 | 5.12 | –
10 | Cc1c(-c2coc(-c3ccccc3)n2)c(=O)n(-c2ccccc2)n1C | > 100 µM | > 100 µM | > 100 µM | – | > 100 µM | > 100 µM | > 100 µM | > 100 µM | > 100 µM | – | – | – | – | – | – | – | – | – | – | –
11 | COc1ccc2c3c(c(C(=O)O)oc13)CCC2 | > 100 µM | > 100 µM | > 100 µM | > 100 µM | > 100 µM | 83 µM | > 100 µM | > 100 µM | > 100 µM | – | – | – | – | – | – | – | – | – | – | –
12 | CCN(CC)CCCOc1ccc2ncnc(Nc3ccc(Oc4cccc(C(F)(F)F)c4)c(Cl)c3)c2c1 | 2.56 µM | 3.17 µM | – | 2.85 µM | 3.05 µM | – | 2.99 µM | 3.76 µM | 3.09 µM | – | 1.14 | 1.73 | – | 1.26 | 1.56 | 1.56 µM | 1.58 | – | – | 1.41 µM
13 | Cc1ccc(NC(=O)C(=O)C(C(=O)c2ccc3ccccc3c2)C2OC(=O)c3ccccc32)c(C)c1 (stereo not given) | 42.9 µM | – | 60.4 µM | 52 µM | 37.2 µM | 15.8 µM | 36.5 µM | – | 21.1 µM | – | – | – | – | – | – | – | – | – | – | –
14 | CCCN(CCC)CCc1cc(C(C)=O)n(S(=O)(=O)c2ccc(C)cc2)c1 | > 100 µM | > 100 µM | > 100 µM | > 100 µM | > 100 µM | > 100 µM | > 100 µM | > 100 µM | > 100 µM | – | – | – | – | – | – | – | – | – | – | –
15 | CCNc1cc2oc(=O)cc(C(F)(F)F)c2cc1C | > 100 µM | > 100 µM | > 100 µM | > 100 µM | > 100 µM | > 100 µM | > 100 µM | – | > 100 µM | > 100 | – | – | – | – | – | – | – | – | – | –
16 | CCO/C(CCn1[nH]c(=O)c(Cl)c(Cl)c1=O)=N\NC(=O)C(=O)NN | > 100 µM | > 100 µM | > 100 µM | > 100 µM | > 100 µM | > 100 µM | > 100 µM | – | > 100 µM | – | – | – | – | – | – | – | – | – | – | –
17 | CC(N)Cc1ccc(Cl)cc1 (stereo not given) | > 100 µM | > 100 µM | > 100 µM | > 100 µM | > 100 µM | > 100 µM | > 100 µM | > 100 µM | > 100 µM | – | – | – | – | – | – | – | – | – | – | –
18 | COC1CC(C)C(OC)c2cc(O)cc(c2O)NC(=O)/C(C)=C/C=C\C(C)C(OC(N)=O)/C(C)=C\C(C)C1OC (stereo not given) | 21.1 µM and 10.6 µM | 9.09 µM and 8.02 µM | 8.02 µM and 14.7 µM | 25 µM and 22.9 µM | 5.59 µM and 4.37 µM | 24.3 µM and 24.4 µM | 20.5 µM and 11 µM | 2 µM and 6.31 µM | 9.78 µM and 11.3 µM | – | 2.92 | 0.665 | 0.171 | 7.95 | 0.549 | 0.169 µM and 0.179 µM | 0.318 | – | – | 0.191 µM and 0.11 µM
19 | NC(=O)COc1c(Br)cc(Br)cc1Br | – | > 100 µM | > 100 µM | > 100 µM | > 100 µM | > 100 µM | > 100 µM | > 100 µM | > 100 µM | – | – | – | – | – | – | – | – | – | – | –
20 | CN(C)CCNC(=O)c1cccc2nc3ccc4cccnc4c3nc12 | 0.688 µM | 3.94 µM | 8.53 µM | 2.07 µM | 1.35 µM | 1.83 µM | 2.67 µM | – | 2.12 µM | – | – | – | – | – | – | – | – | – | – | –
21 | Cc1cc(Br)cc(C)c1NC(=O)C(=O)C(C(=O)c1ccncc1)C1OC(=O)c2ccccc21 (stereo not given) | > 100 µM | – | > 100 µM | > 100 µM | > 100 µM | > 100 µM | > 100 µM | > 100 µM | > 100 µM | – | – | – | – | – | – | – | – | – | – | –
